± gives the expanded uncertainty stated by the source.
Key:
[1] = molar heat capacity at constant pressure; settings: 101.33 kPa, Liquid, Small sample (50 mg) DSC
[2] = 101.33 kPa, Liquid; for mass density: Vibrating tube method; for speed of sound: Pulse-echo method

| SMILES | molar heat capacity at constant pressure ([1]; 288.15 K) | molar heat capacity at constant pressure ([1]; 298.15 K) | molar heat capacity at constant pressure ([1]; 308.15 K) | mass density ([2]; 288.15 K) | mass density ([2]; 293.15 K) | speed of sound ([2]; 298.15 K) | mass density ([2]; 298.15 K) | mass density ([2]; 308.15 K) |
| --- | --- | --- | --- | --- | --- | --- | --- | --- |
| COC(=O)OC [dimethyl carbonate] | 164.03 ± 3.3 J/K/mol | 165.02 ± 3.3 J/K/mol | 166.3 ± 3.3 J/K/mol | 1076.56 ± 0.55 kg/m3 | 1070.02 ± 0.55 kg/m3 | 1197.1 ± 1.6 m/s | 1063.42 ± 0.55 kg/m3 | 1050.11 ± 0.54 kg/m3 |
| CCCCCCCCC [nonane] | 280.13 ± 5.6 J/K/mol | 284.23 ± 5.7 J/K/mol | 288.8 ± 5.8 J/K/mol | 721.66 ± 0.41 kg/m3 | 717.75 ± 0.41 kg/m3 | 1206.3 ± 1.6 m/s | 713.85 ± 0.41 kg/m3 | 706.05 ± 0.41 kg/m3 |
| CCCCCCCC [octane] | 250.12 ± 5 J/K/mol | 253.94 ± 5.1 J/K/mol | 258.03 ± 5.2 J/K/mol | 706.54 ± 0.26 kg/m3 | 702.53 ± 0.26 kg/m3 | 1172.1 ± 1.3 m/s | 698.5 ± 0.27 kg/m3 | 690.34 ± 0.27 kg/m3 |

— the NIST ThermoML archive (doi:10.1016/j.tca.2004.11.022)
